# Source: patent US20240172756A1, “ORGANOANTIMONY(V) C[…] AND METHODS OF PRODUCTION AND USE THEREOF” (priority 2021, published 2024)
# Columns and labels:
# Format in all cases: cell-based
# Cryptococcus neoformans [1] = test: Antifungal disk diffusion assay, C. neoformans; details: solid compound on paper disk
# Protocol: (§1) To determine the antifungal properties of the two groups of Sb(V) cyanoximaes, Cryptococcus neoformans and Candida albicans, both of which are deadly human pathogens, were tested.
# (§2) First, solid state powder compounds were deposited on paper disks and tested against two fungi: Cryptococcus neoformans and Candia albicans. Each experiment was conducted in triplicate with each compound at each concentration of deposited solid compound. The control was a blank paper (100% cotton disk).
# (§3) Disk diffusion assays: No inhibition of Cryptococcus neoformans or Candida albicans for the following organoantimony(V) cyanoximate compounds at any concentration (S, ×2, ×4): H(ACO), H(ECO), H(MCO).
# Candida albicans [2] = test: Antifungal disk diffusion assay, C. albicans; details: solid compound on paper disk
# Protocol: as §1, §2, §3
# [3] = test system: bacterial and fungal pathogens; test: Antimicrobial activity overall (disk diffusion and MIC tests, strain not specified); details: for antimicrobial effect in MIC assays: organism not given
# Protocol: (§4) To determine the antimicrobial potential of the two generations (G1—based on SbPh4-core, and G2—based on SbMe3-core) of newly synthesized Sb(V) cyanoximates, several representative compounds were first selected and their antimicrobial properties tested by using disk diffusion assays, The minimal inhibitory concentrations (MIC) of selected compounds were also determined in liquid cultures. Three bacterial and two fungal pathogens were used as target microorganisms. Bacterial pathogens included Gram-negative Pseudomonas aeruginosa and Gram-positive Staphylococcus aureus, representing the ESKAPE group of human pathogens known for their high virulence and antibiotic resistance.
# (§5) Two different types of antimicrobial studies were performed: 1) paper disk studies during growth on solid media; and 2) MIC determination during growth in liquid media. […] Antifungal disk assays concluded that Sb(Ph)4 (ECO) was effective against Cryptococcus neoformans and Candida albicans. […] For MIC assays, Sb(Ph)4 (MCO), the Sb(V) cyanoximate, was tested, along with the free cyanoximes H(MCO), H(ECO), and Na[H(ACO)2].
# Pseudomonas aeruginosa = test: MIC in liquid culture, P. aeruginosa; details: for MIC, P. aeruginosa: Table 1; for antimicrobial effect: strain PAO1, paper disk and MIC studies
# Protocol: as §4
# (§6) MIC of the 3rd generation compounds, as well as complete MIC measurements for the 2nd generation Sb(V) compounds, are determined. A dilution assay in a 96-well-plate format, the gold standard for measuring MICS recommended by the Clinical Laboratory Standards Institute (CLSI), is utilized. Prior to plate inoculation, bacterial cultures of P. aeruginosa PAO1, S. aureus NRS70, E. foecium CC17, and E. coli S17 are grown in Mueller Hinton Broth (MHB) to middle log phase as determined by the individual growth curves and diluted to obtain absorbance at 600 nm of 0.1. These normalized cultures are diluted 1:100 using MHB and inoculated into the fresh medium with serially diluted Sb(V) compounds in 96-well plates. The plates are incubated for 24 h at 37° C. For fungal pathogens, cultures of Cryptococcus neoformans strain H99 and Candida albicans strain SC5314 are grown to stationary phase in YPD medium for 18 h at 30° C. Following incubation, fungal cells are centrifuged, washed three times with PBS, and then counted with trypan blue exclusion. Each compound is screened using a microdilution assay with 0.5×10^3 fungal cells in RPMI-MOPS medium at 35° C. for 48 h. Following incubations for bacterial or fungal pathogens, the OD600 is measured using a Biotek Synergy HT microtiter plate reader ([…].). The MIC is defined as the lowest concentration that inhibits growth. An aliquot from the clear wells from the MIC assay is plated on agar to determine minimum bactericidal concentration (MBC) or minimum fungicidal concentration (MFC). Each experiment is based on at least three biological replicates and repeated for consistency. The MIC and MBC for each compound is compared to those obtained for clinically applied antibiotics/antifungals. For bacterial pathogens, the corresponding antibiotics, such as tobramycin (P. aeruginosa), trimethoprim (S. aureus), gentamicin (E. coli) and ampicillin (E. foecium), are used. For fungal pathogens, the data is compared to the antifungal drugs Amphotericin B and Caspofungin for C. neoformans and C. albicans, respectively, by using the CLSI method.
# as §5
# (§7) MIC assays: The MIC assay protocol utilized for determination of the effects of various organoantimony(V) cyanoximate compounds in various bacteria is shown in FIG. 16. Each solubilized in DMSO at 5 mg/ml, starting concentration is 100 μg/ml. Error bars represent standard error of the mean (if none, the values were identical in each experiment). Untested compounds have no bar. Bars reaching 100 μg/ml were not considered to have antifungal activity.
# Escherichia coli = test: MIC in liquid culture, E. coli; details: for MIC, E. coli: Table 1; for antimicrobial effect: strain S17, paper disk and MIC studies
# Protocol: as §4, §6, §5, §7
# Cryptococcus neoformans [4] = test: MIC assay, C. neoformans; details: for MIC, C. neoformans: Table 1
# Protocol: as §1, §6
# (§8) Second, the compounds were dissolved in DMSO to […], and their minimal inhibitory concentration (MIC) was determined against C. neoformans and C. albicans. Starting concentration used was 100 μg/ml, and then diluted 1:2.
# as §7
# Candida albicans [5] = test: MIC assay, C. albicans; details: for MIC, C. albicans: Table 1
# Protocol: as §1, §6, §8, §7
# Staphylococcus aureus = test: MIC in liquid culture, S. aureus; details: for MIC, S. aureus: Table 1; for antimicrobial effect: Methicillin-resistant strain NRS70, paper disk and MIC studies
# Protocol: as §4, §6, §5, §7
# [6] = test system: Staphylococcus aureus MRSA; test: Broth dilution assay, S. aureus MRSA; details: multi-drug resistant strain, FIG. 20
# From the text: As shown in FIGS. 20-21, compounds containing Sb display higher bactericidal activity against Gram positive Staphylococcus aureus (FIG. 20) than Gram negative E. coli (FIG. 21). […] In addition, 25-40% reduction of growth was also observed for Sb(Ph4)Br, Sb(Ph4)ECO, Sb(Ph4)ACO, and Sb(Ph4)TCO against Gram negative E. coli (FIG. 21).
# [7] = in DMSO, starting concentration 100 μg/ml, active if MIC below 100 μg/ml
structure (smiles),measurement,setting,value
"N#C/C(=N\O)C(N)=O [H(ACO), reference compound]",antifungal activity / zone of inhibition in disk assay,Cryptococcus neoformans [1],No inhibition
same,antifungal activity / zone of inhibition in disk assay,Candida albicans [2],No inhibition
same,antimicrobial activity,[3],most antimicrobially active
"CCOC(=O)/C(C#N)=N/O [H(ECO), reference compound]",antifungal activity / zone of inhibition in disk assay,Cryptococcus neoformans [1],No inhibition
same,antifungal activity / zone of inhibition in disk assay,Candida albicans [2],No inhibition
same,antimicrobial effect in MIC assays,[3],no antimicrobial effect
"N#CC(=NO)C(=O)N1CCOCC1 [H(MCO), reference compound]",antifungal activity / zone of inhibition in disk assay,Cryptococcus neoformans [1],No inhibition
same,antifungal activity / zone of inhibition in disk assay,Candida albicans [2],No inhibition
same,antimicrobial activity,[3],most antimicrobially active
same,antimicrobial effect in MIC assays,[3],no antimicrobial effect
N#CC(=NO)C(N)=O.N#CC(=N[O-])C(N)=O.[Na+] [Na[H(ACO)2]],antimicrobial effect in MIC assays,[3],no antimicrobial effect
"[CH3][Sb]([CH3])([CH3])([O]N=C(C#N)c1ccc(Cl)cc1Cl)[O]N=C(C#N)c1ccc(Cl)cc1Cl [SbMe3(2,4-ClPhCO)2]","MIC, P. aeruginosa",Pseudomonas aeruginosa,>200 µg/mL
same,"MIC, E. coli",Escherichia coli,>200 µg/mL
same,"MIC, C. neoformans",Cryptococcus neoformans [4],>100 µg/mL
same,"MIC, C. albicans",Candida albicans [5],>100 µg/mL
"[CH3][Sb]([CH3])([CH3])([O]N=C(C#N)c1c(Cl)cccc1Cl)[O]N=C(C#N)c1c(Cl)cccc1Cl [SbMe3(2,6-ClPhCO)2]","MIC, P. aeruginosa",Pseudomonas aeruginosa,>200 µg/mL
same,"MIC, E. coli",Escherichia coli,50 µg/mL
same,"MIC, C. neoformans",Cryptococcus neoformans [4],>100 µg/mL
same,"MIC, C. albicans",Candida albicans [5],>100 µg/mL
same,antimicrobial activity,[3],pronounced antimicrobial activity
[CH3][Sb]([CH3])([CH3])([O]N=C(C#N)c1ccccc1Cl)[O]N=C(C#N)c1ccccc1Cl [SbMe3(2-ClPhCO)2],"MIC, P. aeruginosa",Pseudomonas aeruginosa,>200 µg/mL
same,"MIC, E. coli",Escherichia coli,>200 µg/mL
same,"MIC, S. aureus",Staphylococcus aureus,>200 µg/mL
same,"MIC, C. neoformans",Cryptococcus neoformans [4],>100 µg/mL
same,"MIC, C. albicans",Candida albicans [5],>100 µg/mL
CCOC(=O)C(C#N)=N[O][Sb]([CH3])([CH3])([CH3])[O]N=C(C#N)C(=O)OCC [SbMe3(ECO)2],"MIC, P. aeruginosa",Pseudomonas aeruginosa,>200 µg/mL
same,"MIC, E. coli",Escherichia coli,>200 µg/mL
same,"MIC, S. aureus",Staphylococcus aureus,>200 µg/mL
[CH3][Sb]([CH3])([CH3])([O]N=C(C#N)C(=O)N1CCOCC1)[O]N=C(C#N)C(=O)N1CCOCC1 [SbMe3(MCO)2],"MIC, P. aeruginosa",Pseudomonas aeruginosa,50 µg/mL
same,"MIC, E. coli",Escherichia coli,>200 µg/mL
same,"MIC, S. aureus",Staphylococcus aureus,>200 µg/mL
same,antimicrobial activity,[3],pronounced antimicrobial activity
[CH3][Sb]([CH3])([CH3])([O]N=C(C#N)C(N)=S)[O]N=C(C#N)C(N)=S [SbMe3(TCO)2],"MIC, P. aeruginosa",Pseudomonas aeruginosa,>200 µg/mL
same,"MIC, E. coli",Escherichia coli,>200 µg/mL
CN(C)C(=S)C(C#N)=N[O][Sb]([CH3])([CH3])([CH3])[O]N=C(C#N)C(=S)N(C)C [SbMe3(TDCO)2],"MIC, P. aeruginosa",Pseudomonas aeruginosa,>200 µg/mL
same,"MIC, E. coli",Escherichia coli,>200 µg/mL
"[CH3][Sb]([CH3])([CH3])([Br])[Br] [SbMe3Br2, triemethylantimony(V) dibromide, reference compound]","MIC, P. aeruginosa",Pseudomonas aeruginosa,50 µg/mL
same,"MIC, E. coli",Escherichia coli,150 µg/mL
same,"MIC, S. aureus",Staphylococcus aureus,100 µg/mL
same,"MIC, C. neoformans",Cryptococcus neoformans [4],>100 µg/mL
same,"MIC, C. albicans",Candida albicans [5],>100 µg/mL
N#CC(=N[O][Sb]([c]1ccccc1)([c]1ccccc1)([c]1ccccc1)[c]1ccccc1)C(N)=O [SbPh4ACO],"MIC, P. aeruginosa",Pseudomonas aeruginosa,100 µg/mL
same,antimicrobial effect,Pseudomonas aeruginosa,significant antimicrobial effect
same,"MIC, E. coli",Escherichia coli,100 µg/mL
same,antimicrobial effect,Escherichia coli,significant antimicrobial effect
same,antimicrobial effect,Staphylococcus aureus,significant antimicrobial effect
same,"MIC, S. aureus",Staphylococcus aureus,100 µg/mL
same,"MIC, C. neoformans",Cryptococcus neoformans [4],18.8 µg/mL
same,"MIC, C. albicans",Candida albicans [5],15.6 µg/mL
same,antifungal activity / zone of inhibition in disk assay,Cryptococcus neoformans [1],effective
same,antifungal activity / zone of inhibition in disk assay,Candida albicans [2],only effective at inhibition of Cryptococcus neoformans
same,MIC (minimum inhibitory concentrations),[6],100 µg/mL
same,bactericidal activity,[6],significant bactericidal activity
"[Br][Sb]([c]1ccccc1)([c]1ccccc1)([c]1ccccc1)[c]1ccccc1 [SbPh4Br, tetraphenylantimony(V) bromide, reference compound]",bactericidal activity,[6],significant bactericidal activity
N#CC(=N[O][Sb]([c]1ccccc1)([c]1ccccc1)([c]1ccccc1)[c]1ccccc1)C(=O)N1CCOCC1 [SbPh4MCO],"MIC, P. aeruginosa",Pseudomonas aeruginosa,200 µg/mL
same,"MIC, E. coli",Escherichia coli,>200 µg/mL
same,"MIC, S. aureus",Staphylococcus aureus,100 µg/mL
same,concentration with fungicidal activity (killed C. neoformans),Cryptococcus neoformans [4]; Example 6,100 µg/mL
same,MIC with C. neoformans,"Cryptococcus neoformans [4]; Example 6, three independent experiments",22.5 µg/mL
same,"MIC, C. neoformans",Cryptococcus neoformans [4],19.8 µg/mL
same,antifungal activity in MIC assay,Cryptococcus neoformans [4]; [7],exhibited antifungal activity
same,"MIC, C. albicans",Candida albicans [5],32.1 µg/mL
same,antifungal activity in MIC assay,Candida albicans [5]; [7],exhibited antifungal activity
CN(C)C(=S)C(C#N)=N[O][Sb]([c]1ccccc1)([c]1ccccc1)([c]1ccccc1)[c]1ccccc1 [SbPh4TDCO],"MIC, P. aeruginosa",Pseudomonas aeruginosa,>200 µg/mL
same,antimicrobial effect,Pseudomonas aeruginosa,essentially no antimicrobial activity
same,"MIC, E. coli",Escherichia coli,>200 µg/mL
same,antimicrobial effect,Escherichia coli,essentially no antimicrobial activity
same,antimicrobial effect,Staphylococcus aureus,significant effects
same,"MIC, S. aureus",Staphylococcus aureus,100 µg/mL
same,"MIC, C. neoformans",Cryptococcus neoformans [4],33.3 µg/mL
same,"MIC, C. albicans",Candida albicans [5],100 µg/mL
same,antifungal activity / zone of inhibition in disk assay,Cryptococcus neoformans [1],effective
same,antifungal activity / zone of inhibition in disk assay,Candida albicans [2],only effective at inhibition of Cryptococcus neoformans
